Test system: Spontaneously hypertensive rats (SHR)
Test: Animal Test (2): 8-week feeding, weekly blood pressure in SHR
Assay type: in vivo, rat
Conditions: PC group, 1 mg/kg
Method: Six-week-old spontaneously hypertensive rats (SHR) were divided into 5 groups, each receiving the corresponding treatment stated below: • Negative control group (NC group): feeding with water • Positive control group (PC group): feeding with hypertension drug Captopril at 1 mg/kg • Low-dose group (L group): feeding with the peptide composition disclosed herein at a dose of 50 mg/kg • Medium-dose group (M group): feeding with the peptide composition disclosed herein at a dose of 100 mg/kg • High-dose group (H group): feeding with the peptide composition disclosed herein at a dose of 200 mg/kg
The experiment lasted for a total of 8 weeks.

Molecule `C[C@H](CS)C(=O)N1CCC[C@H]1C(=O)O` [Captopril] has a Diastolic blood pressure (Week 0) of 80.2 ± 6.5 mmHg, a Systolic blood pressure (Week 0) of 111.0 ± 7.2 mmHg and a Diastolic blood pressure (Week 1) of 79.9 ± 6.3 mmHg. For the same molecule, the Systolic blood pressure (Week 1) was 110.2 ± 5.8 mmHg, the Diastolic blood pressure (Week 2) was 79.0 ± 5.3 mmHg and the Systolic blood pressure (Week 2) was 108.8 ± 4.2 mmHg. It also gave a Diastolic blood pressure (Week 3) of 78.9 ± 6.4 mmHg, a Systolic blood pressure (Week 3) of 108.6 ± 4.3 mmHg and a Diastolic blood pressure (Week 4) of 78.9 ± 3.9 mmHg. It also gave a Systolic blood pressure (Week 4) of 108.4 ± 3.9 mmHg, a Diastolic blood pressure (Week 5) of 78.8 ± 3.8 mmHg and a Systolic blood pressure (Week 5) of 108.1 ± 4.1 mmHg. It also gave a Diastolic blood pressure (Week 6) of 78.8 ± 3.2 mmHg, a Systolic blood pressure (Week 6) of 108.1 ± 2.0 mmHg and a Diastolic blood pressure (Week 7) of 78.8 ± 5.0 mmHg. For the same molecule, the Systolic blood pressure (Week 7) was 108.0 ± 3.1 mmHg, the Diastolic blood pressure (Week 8) was 78.8 ± 2.9 mmHg and the Systolic blood pressure (Week 8) was 108.0 ± 2.5 mmHg.

Reference: patent publication US20260000728A1, “PEPTIDE HAVING ACE INHIBITORY ACTIVITY AND COMPOSITION CONTAINING THE SAME” (Vedan International (Holdings) Limited, priority 2024, published 2026)
